Experimental findings from US9925398B2, “Angiogenic peptide” (NOVACELL TECHNOLOGY INC., priority 2008, dated 2018) are described below.

The subject of test [1] is HUVECs. The test is described as follows: Tube formation assay on Matrigel. Type of test: cell-based, human. Conditions: 24 h. As to the method:
As described previously in M. S. Lee, et al., J Immunol 177 (2006), pp. 5585-5594, HUVECs were seeded on a layer of previously polymerized Matrigel with SFKLRY-NH2 (SEQ ID NO: 2), its scrambled sequence FYSRLK-NH2, S1P or VEGF in the presence or absence of VEGF neutralizing antibody. After 24 h of incubation, changes in cell morphology were observed through a phase-contrast microscope and photographed. To measure the formation of the capillary network, the total tube length per field was measured at 40× magnification with the scale. Three different fields were analyzed per well.
FIGS. 2A-2C show SFKLRY-NH2 (SEQ ID NO: 2) induces proliferation, migration, and tube formation in HUVECs. (A) The effect of SFKLRY-NH2 on proliferation of HUVECs. […] After 48 h of incubation, the activity of DNA synthesis was counted with a liquid scintillation counter. […] After wounding, HUVECs were incubated with indicated concentration of SFKLRY-NH2 (SEQ ID NO: 2) (0.1-10 μM) for 16 h and then migrated HUVECs beyond the reference line were counted. […] After incubation for 24 h, the tubular-like structures were photographed and the length of tube formation was measured. […]
FIGS. 6A-6B show anti-VEGF antibody suppress SFKLRY-NH2 (SEQ ID NO: 2)-induced tube formation in HUVECs. […] After incubation for 24 h, the tubular-like structures were photographed and the length of tube formation was measured. […]

The test system of test [2] is HUVECs. Description: [Ca2+]i increase in HUVECs. In kind it is cell-based, human. Conditions: 10 μM. As for the experimental part: Cells were incubated with 4 μM Fura-2 AM and 250 μM sulfinpyrazone in serum-free DMEM medium at 37° C. for 30 min with continuous stirring. The cells were then washed with Locke's solution (M. Faehling, et al., FASEB J 16 (2002), pp. 1805-1807) and diluted to 2×10^6 cells/mL. 50 μL aliquots of cell suspension were added to each well of a 96-well plate, and the change in fluorescence ratio was determined at dual excitation wavelengths of 340 and 380 nm and emission wavelength of 500 nm following addition of peptides. Plates were read immediately following the addition of peptide pools, resulting in a time delay of approximately 5 s between peptide addition and detection by the FLEXstation (Molecular Devices). Negative and positive controls were run simultaneously with test samples to ensure that all samples were subjected to identical conditions. The calibration of the fluorescence ratio in terms of [Ca^2+]i was performed according to Grynkiewicz et al. J Biol Chem 260 (1985), pp. 3440-3450.
To verify that SFKLRY-NH2 (SEQ ID NO: 2) induces [Ca^2+]i increase in human endothelial cells, intracellular Ca^2+ mobilization in primary cultured human umbilical vein endothelial cells (HUVECs) were measured. Treatment with SFKLRY-NH2 (SEQ ID NO: 2) induced [Ca^2+]i increase in HUVECs with the half-maximal effect at 1.4±0.15 μM. […]

For test [3], the system named is Rat aortic explants. The test is described as follows: Aortic ring assay (vessel sprouting ex vivo). In kind it is cell-based. Conditions: 1 μM; 7 days. As for the experimental part: The method developed by Nicosia and Ottinetti in In Vitro Cell Dev Biol 26 (1990), pp. 119-128 was used with some modifications. Aortas were harvested from 6-week-old Sprague-Dawley rats. After removing the surrounding fibro-adipose tissues, the rings were immersed in Matrigel in wells within culture dishes. The aortic rings were cultured (5% CO2, 37° C.) in serum-free M199 containing SFKLRY-NH2 (SEQ ID NO: 2), S1P, FYSRLK-NH2, or VEGF in the presence or absence of PTX or U73122. On day 7, sprouting from aortic explants was measured.
To address whether SFKLRY-NH2 (SEQ ID NO: 2) plays a role in sprouting of vascular endothelial cells ex vivo, aortic rings were analyzed in the presence of various stimuli including 1 μM SFKLRY-NH2 (SEQ ID NO: 2), 10 ng/mL VEGF, 10 nM S1P, and 10% FBS. […] Rat aortic explants in Matrigel were incubated with M-199 harboring SFKLRY-NH2 (SEQ ID NO: 2) (1 μM), FYSRLK-NH2 (1 μM), S1P (10 nM), VEGF (10 ng/mL), SFKLRY-NH2 (SEQ ID NO: 2) (1 μM) with U73122 (10 μM) or PTX (50 ng/mL), or 10% FBS and photographed after incubation for 7 days. Three independent experiments were then conducted, each in duplicate.

Take `CCCCCCCCCCCCC/C=C/[C@@H](O)[C@@H](N)COP(=O)(O)O` [S1P, sphingosine-1-phosphate]: the “Tube-forming activity (length of tube formation)” value in test [1] (100 nM) was determined as 19.69±0.32.
FYSRLK-NH2: in test [2], the “Ca2+ mobilization” value is “did not trigger Ca^2+ mobilization”. For the same compound, the “vessel sprouting activity (outgrowth of endothelial cells)” value in test [3] was “negligible activity”. The “Tube-forming activity (length of tube formation)” value in test [1] (10 μM) is recorded as 8.96±1.14.
